What was measured:
Bioluminescent AB0057 = Bioluminescent AB0057 challenged with iron chelators; format: cell-based, Acinetobacter baumannii; settings: 100 μm; 4 hours; low iron media
Source text: This example studies bioluminescent A. baumannii challenged with iron chelators. AB0057 is a strain of Acinetobacter baumannii available from Robert Bonomo, Case Western Reserve University, Cleveland, Ohio.
As a precursor to conducting this in vitro assay, AB0057 was transformed with a bioluminescent plasmid. The p16Slux plasmid is illustrated in FIG. 38, and further details regarding its development and use are set forth in Christian U. Riedel et al., “Construction of p16Slux, a Novel Vector for Improved Bioluminescent Labeling of Gram-Negative Bacteria,” Appl. Environ. Microbiol. 2007 November; 73(21): 7092-7095.
Bioluminescent AB0057 were grown overnight in LB media and sub-cultured into low iron media in a 96-well plate containing varying concentrations of iron chelators for 4 hours. Bacterial growth was measured by bioluminescence (relative light units). The iron chelators VK28 and DFO were tested along with chelators DIP, ETTA, and EDTA as controls. The chelators were tested a concentrations of 0 μM, […], 3.13 μM, 6.25 μM, 12.5 μM, 25 μM, 50 μM, and 100 μM.

[1] = system: five clinical isolates of A. baumannii and AB19606; assay: Growth (OD600) of six A. baumannii strains with VK28 in low-iron M9 media; format: cell-based; settings: 200 μM VK28 after 4 hr of growth, 24 hr
Method: Five clinical isolates of A. baumannii were obtained from Walter Reed Army Medical Center (WRAMC) and compared to the laboratory strain AB19606 from the ATCC. Strains were challenged with either 0 μM or 200 μM VK28 in low-iron M9 media after 4 hr of growth. Growth was estimated by absorbance at 600 nm every 4 hr for 24 hr. Dashed lines represent the same strains treated with 200 μM VK28.

A. baumannii = assay: Growth (OD600) with VK28 added at different times post-inoculation; format: cell-based; settings: 200 μM VK28 added at 0, 4, 8, 12, 16, 20 hr post-inoculation; low-iron M9
Method: A. baumannii was grown in low-iron M9 media and challenged with 200 μM VK28 at 0 hr (▪), 4 hr (▴), 8 hr (▪), 12 hr (▪), 16 hr (•), and 20 hr (▪) post-inoculation. Growth was estimated by absorbance at 600 nm every 4 hr for 24 hr.

Escherichia coli = assay: Growth (OD600) with VK28 in M9 media with magnesium / calcium; format: cell-based; settings: 24 hours
Method: Escherichia coli was grown similar to as described in Example 19 in M9 media containing 2 mM MgSO4 for 24 hours in the presence of 0 μg/ml, 50 μg/ml, 100 μg/ml, or 200 μg/ml VK28. The OD600 was measured at 0, 4, and 24 hour and the results are shown in the time-kill curves of FIG. 18.
(§1) In this example, strains of MR Staphylococcus aureus (MRSA), Acinetobacter baumannii (Acinetobacter), Escherichia coli (E. coli), and Pseudomonas aeruginosa (Pseudomonas) were grown in M9 media in the presence of 2 mM MgSO4 and 1.35 mM CaCl2 for 24 hours in the presence or absence of 0 μg/ml, 50 μg/ml, 100 μg/ml, or 200 μg/ml of VK28. The OD600 was measured at 24 hour and the results are shown in the bar graph of FIG. 21.

Pseudomonas aeruginosa = assay: as above; format: cell-based; settings: 24 hours
Method: Pseudomonas aeruginosa was grown similar to as described in Example 21 in M9 media containing 2 mM MgSO4 for 24 hours in the presence of 0 μg/ml, 50 μg/ml, 100 μg/ml, or 200 μg/ml VK28. The OD600 was measured at 0, 4, and 24 hour and the results are shown in the time-kill curves of FIG. 20.
as §1

[2] = mouse; systemically/intravenously; cited from earlier work
[3] = M9 with 2 mM MgSO4, 50-200 μg/ml VK28
[4] = M9 with 2 mM MgSO4 and 1.35 mM CaCl2

SMILES: OCCN1CCN(Cc2ccc(O)c3ncccc23)CC1 [VK28, 5-(4-(2-hydroxyethyl)piperazin-1-ylmethyl)-8-hydroxyquinoline]
- Bioluminescence (relative light units) (Bioluminescent AB0057): especially surprisingly lower
- OD600 values (growth) [1]: greatly decreases the OD600 values
- continued multiplication of bacteria (OD600) (A. baumannii): effective to halt the continued multiplication of bacteria
- inhibition of growth (OD600) (Escherichia coli; [3]): inhibition of growth of E. coli is not reduced in the presence of magnesium and calcium
- inhibition of growth (OD600) (Escherichia coli; [4]): inhibition of growth of a number of strains of bacteria is not reduced in the presence of magnesium and calcium
- inhibition of growth (OD600) (Pseudomonas aeruginosa; [3]): inhibition of growth of Pseudomonas aeruginosa is not reduced in the presence of magnesium
- inhibition of growth (OD600) (Pseudomonas aeruginosa; [4]): inhibition of growth of a number of strains of bacteria is not reduced in the presence of magnesium and calcium
- dose showing toxicity [2]: 30 mg/kg

Reference: patent US10064858B2, “Methods and compositions for treating bacterial infections with iron chelators” (THE UNITED STATES OF AMERICA, AS REPRESENTED BY THE …, priority 2011, dated 2018)
